The record followed here is article PMC3422259, “Additive Mixture Effects of Estrogenic Chemicals in Human Cell-Based Assays Can Be Influenced by Inclusion of Chemicals with Differing Effect Profiles” (PLoS ONE, 2012).

In assay [1] the test system is T47D-KBluc cells. Briefly: cells. To be noted: Homo sapiens; for EC10 / EC25: 24 h. Also noted: Emax: dose or concentration left out as unconfirmed. Here is the method: T47D-KBluc cells were obtained from the ATCC and the protocol established by the depositing authors was followed. Cells were routinely grown in RPMI media (with 10% foetal calf serum (FCS)). For seven days prior to experiments, cells were maintained in low estrogen conditions by the use of pre-assay media (RPMI, 10% charcoal-dextran stripped FCS, no antibiotics). For experiments, cells were seeded in white polystyrene 96 well plates at a density of 10,000 cells/well and allowed to attach for 24 hours before removal of media, and application of test chemicals. Test chemicals were dissolved in ethanol to give stock solutions of millimolar concentrations. Test and control solutions were obtained by dilution of ethanolic stocks in dosing media (phenol red-free RPMI, 5% charcoal-dextran stripped FCS, no antibiotics), and in all cases the final concentration of ethanol was 0.5%. The positive control was 1 nM estradiol. Positive and vehicle controls were run as eight replicate wells per plate, and compounds were tested in a dilution series comprising eight concentrations, each concentration tested in triplicate. As recommended by Wilson et al. two additional controls were also included on each plate: 1) vehicle control plus an antiestrogen, ICI 182,780 (1 µM), and 2) positive control plus ICI 182,780 (1 µM). […] A crude measure of toxicity was provided by comparing values for treatments that were not positive, with the value of the vehicle control. […] 24 hours after application of test and control solutions, a volume of Steady-Glo assay reagent (Promega) equal to the volume of culture media was added and plates were incubated for ten minutes, with shaking, to allow for cell lysis. Plates were then loaded into a plate reader (FLUOstar Optima, BMG Labtech) and incubated for a further ten minutes in the dark, followed by measurement of luminescence. To reduce variation, the temperature of the plate reader chamber was maintained at 27°C throughout.
(§1) Experiments were performed on different days meaning that results for different dilution series and different batches of the test chemicals were obtained on different days. Each single chemical was tested in three or more independent experiments. Use of normalisation meant that data from different experiments could be reliably combined and compared, as discussed previously. Data was expressed relative to the positive control, rather than as fold change from the vehicle response, for two reasons.
Effect concentrations (ECx) were defined relative to the effects of the estradiol concentration used as the positive control, for example EC50 is the concentration producing an effect of 50% of the positive control (estradiol, 1 nM (ERLUX) or 25 nM (ESCREEN)).
(§2) Results from regression analysis for each test chemicals were used to predict the CA effect for fixed-ratio mixtures designed on 1) equi-effective concentrations (balanced design), 2) possible human serum levels (non-balanced design). The original mathematical formulation of CA that defines for a mixture composed of n components with concentration c1 of the first component, c2 of the second component, and cn for the n-th component a combination effect X is [drawing 1] (1) Here, ECX1, ECX1 …, ECXn are the concentrations of the individual components that on their own produce the same effect X as the mixture, [15] The quotients cn/ECXn are called toxic units and scale all compounds in the mixture relative to their toxicity. They can be interpreted as the contribution of the compound to the total mixture concentration that is expected to produce the mixture effect X. According to equation 1, a mixture effect for a pre-defined effect level X is described only implicitly.

Assay [2] deals with MCF-7 cells. Description: Estrogenicity assay, mitogenic endpoint (ESCREEN). Also noted: Emax: dose or concentration left out as unconfirmed. To be noted: Homo sapiens; for EC10 / EC25: MCF7, 120 h. Here is the method: The ESCREEN assay was performed using cloned MCF-7 cells (described in [6], gifted from A. Soto, Boston) and the established ESCREEN method was followed using an adapted 96-well format. Cells were cultured in DMEM (5% FCS). For experiments, cells were seeded in clear polystyrene 96 well plates at a density of 2,500 cells/well and allowed to attach for 24 hours before washing with rinse media (phenol red-free DMEM, no supplements). […] Test chemicals were dissolved in ethanol to give stock solutions of millimolar concentrations. Test and control solutions were diluted prior to application in dosing media (phenol red free DMEM, 10% charcoal-dextran stripped FCS). The final concentration of ethanol was 0.5% in test and control wells. […] At all stages, media removal from cells was carried out gently and in a controlled fashion by use of an electronic multichannel pipette set to the lowest speed possible. Controls were run as eight replicate wells per plate and compounds were tested in a dilution series comprising eight concentrations, each concentration tested in two replicate wells per plate. The plate layout was designed to reduce variation due to evaporation and spreading of test chemicals, and had been previously optimised in the laboratory. After application of test solutions, plates were incubated for 120 hours before fixation with 10% trichloroacetic acid and sulforhodamine B (SRB) staining to measure protein and allow the indirect quantification of cell number.
as §1
as §2, with “implicitly. However, if the individual concentrations ci are expressed as relative fractions pi to the total mixture concentration ECxMix, then equation 1 can be re-arranged to [drawing 2] (2) which allows the direct calculation of the mixture concentration that is expected to produce the mixture effect X. To form a prediction curve, equation 2 is iterated through for various effect levels resulting in sets of effects and their associated predicted mixture concentration which are then plotted to produce a graph of the effect prediction.” for “implicitly.”
Both equations 1 and 2 require knowledge of the concentration of each mixture component that on its own produces the effect magnitude under consideration. For this reason, these equations cannot be used for predicting mixture effects that exceed the maximal effect of the least efficacious component, because those effect concentrations cannot be defined.

The mark [3] stands for this setting: read-out: Concentration Response Function θ^∧ max.
Setting [4] is: MCF7, read-out: Concentration Response Function θ^∧ max.
Where [5] appears, read: MCF7, read-out: Maxima at effect levels relative to that of estradiol (submaximal response).
The mark [6] stands for this setting: read-out: Supramaximal response, of estradiol maxima.

The structures appear in SMILES notation. Like-named read-outs stand apart in the source and are kept apart here.

Broadly, the EC10 is the concentration needed for an effect of 10%. What is called EC25 is the concentration needed for an effect of 25%. For `Cc1ccc(/C=C2/C(=O)C3(C)CCC2C3(C)C)cc1` (stereo not shown) [4MBC, 4-methylbenzylidene camphor], the EC10 in assay [1] was found to be 1.81 µM; in assay [2], 899 nM. In addition, the concentration for an effect of 25% (EC25) in assay [1] came out at 5 µM; in assay [2], 2.21 µM. In addition, the figures for the Emax in assay [1] (setting [3]), in assay [2] (setting [4]) and in assay [2] (setting [5]) were 82%, 63% and 60 to 70%, respectively.
For the compound `Brc1ccc(Oc2c(Br)cc(Br)cc2Br)c(Br)c1` [BDE100, Brominated diphenyl ether-100], the 10% effect concentration (EC10) in assay [1] was 5.36 µM; in assay [2], 704 nM. In addition, the EC25 in assay [1] amounted to 12.8 µM; in assay [2], 2.41 µM. Besides, the Emax in assay [1] (setting [3]) was 172%; in assay [2] (setting [4]), 71%.
For `COc1ccc(C(=O)c2ccccc2)c(O)c1` [Benzophenone-3], the 10% effect concentration (EC10) turned out to be 2.27 µM in assay [1] and 1300 nM in assay [2]. Besides, the EC25 in assay [1] amounted to 4.61 µM; in assay [2] it was 4.31 µM. Moreover, the Emax in assay [1] (setting [3]) was 177%; in assay [1] (setting [6]), 150%; in assay [2] (setting [4]) it was 63%; in assay [2] (setting [5]), 60 to 70%.
Turning to `CC(C)(c1ccc(O)cc1)c1ccc(O)cc1` [Bisphenol A], the figures for the EC10 in assay [1] and in assay [2] were 0.155 µM and 45.2 nM, respectively. Also, the 25% effect concentration (EC25) was 0.258 µM in assay [1] and 0.0818 µM in assay [2]. Moreover, the values for the Emax in assay [1] (setting [3]), in assay [1] (setting [6]) and in assay [2] (setting [4]) were 144%, 150% and 121%, respectively.
Turning to `CCCCOC(=O)c1ccc(O)cc1` [Butylparaben], the 10% effect concentration (EC10) stood at 0.497 µM in assay [1] and 571 nM in assay [2]. In addition, the concentration for an effect of 25% (EC25) in assay [1] was found to be 0.881 µM; in assay [2] it was 1.32 µM. In addition, the Emax in assay [1] (setting [3]) was determined as 331%; in assay [1] (setting [6]) it was 300%; in assay [2] (setting [4]), 101%.
As to `O=c1oc2cc(O)ccc2c2oc3cc(O)ccc3c12` [Coumestrol], the figures for the EC10 in assay [1] and in assay [2] were 0.00158 µM and 1.56 nM, respectively. Besides, the 25% effect concentration (EC25) amounted to 0.00342 µM in assay [1] and 0.005 µM in assay [2]. In addition, the Emax in assay [1] (setting [3]) was 101%; in assay [2] (setting [4]) it was 131%.
With `C#C[C@]1(O)CC[C@H]2[C@@H]3CCc4cc(O)ccc4[C@H]3CC[C@@]21C` [EE2, Ethinyl estradiol, reference compound], the EC10 in assay [1] is 6.51e-07 µM; in assay [2] it was 0.000635 nM. Also, the values for the EC25 in assay [1] and in assay [2] were 1.32e-06 µM and 1.81e-06 µM, respectively. For the same compound, the figures for the Emax in assay [1] (setting [3]) and in assay [2] (setting [4]) were 105% and 114%, respectively.
For `OC[C@H](Cc1cccc(O)c1)[C@H](CO)Cc1cccc(O)c1` [Enterodiol], in assay [2], the EC10 was 3850 nM and the concentration for an effect of 25% (EC25) is 7.45 µM. Also, in assay [2] (setting [4]), the Emax is 45%.
On to `O=C1OC[C@H](Cc2cccc(O)c2)[C@H]1Cc1cccc(O)c1` [Enterolactone], for which the 10% effect concentration (EC10) in assay [1] is 3.77 µM; in assay [2] it was 4150 nM. Besides, the EC25 in assay [1] turned out to be 8.18 µM; in assay [2], 7.22 µM. Besides, the Emax in assay [1] (setting [3]) is 104%; in assay [2] (setting [4]), 139%.
With `C[C@]12CC[C@@H]3c4ccc(O)cc4CC[C@H]3[C@@H]1CC[C@@H]2O` [Estradiol, reference compound], the EC10 in assay [1] was determined as 6.53e-07 µM; in assay [2] it was 0.00112 nM. For the same compound, the EC25 in assay [1] was 1.45e-06 µM; in assay [2] it was 3.12e-06 µM. Besides, the Emax in assay [1] (setting [3]) was 123%; in assay [2] (setting [4]), 133%.
Take `c1ccc2c(c1)-c1cccc3cccc-2c13` [Fluoranthene]: the 10% effect concentration (EC10) came out at 60 µM in assay [1] and 33900 nM in assay [2]. The Emax in assay [1] (setting [3]) came out at 16%; in assay [2] (setting [4]) it was 38%. In assay [2], the EC25 worked out at 88.5 µM.
Consider `CC1COCc2cc3c(cc21)C(C)(C)C(C)C3(C)C` (stereo not shown) [Galaxolide, Galaxolide (HHCB)], for which the EC10 in assay [1] came to 3.93 µM; in assay [2] it was 5390 nM. The concentration for an effect of 25% (EC25) in assay [1] was found to be 7.73 µM; in assay [2], 12.3 µM. Besides, the Emax in assay [1] (setting [3]) turned out to be 91%; in assay [2] (setting [4]) it was 69%.
